Assay results reported in ChEMBL document CHEMBL1201862, “PubChem BioAssay data set” (2004).
Calls of active or inactive are those of the source.

Experiments:
[1] = molecular target: DNA dC->dU-editing enzyme APOBEC-3G (Homo sapiens, UniProt Q9HC16); experiment: APOBEC3G deaminase inhibitors, SAR follow-up, biochemical, fluorescence, single-stranded DNA substrate (AID 602136); assay type: functional; conditions: read-out: IC50_Mean
[2] = molecular target: DNA dC->dU-editing enzyme APOBEC-3A (Homo sapiens, UniProt P31941); experiment: SAR analysis of small molecule inhibitors of APOBEC3A DNA Deaminase via a fluorescence-based single-stranded DNA deaminase assay.; assay type: functional; conditions: read-out: IC50_Mean
DNA dC->dU-editing enzyme APOBEC-3A, sequence (P31941 whole entry): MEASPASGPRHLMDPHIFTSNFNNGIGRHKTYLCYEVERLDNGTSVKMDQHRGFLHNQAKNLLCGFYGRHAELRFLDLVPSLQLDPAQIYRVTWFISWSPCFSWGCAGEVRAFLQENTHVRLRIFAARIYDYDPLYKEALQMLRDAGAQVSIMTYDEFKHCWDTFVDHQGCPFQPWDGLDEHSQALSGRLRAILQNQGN

[3] = THP-1 cell cytotoxicity, dose response, cytotoxicity control, set 3 (AID 504852); assay type: functional; conditions: Mycobacterium tuberculosis
[4] = Vero cell cytotoxicity, dose response, cytotoxicity control for M. tuberculosis growth inhibitor project, Vero cells, purified and synthesized compounds, set 4 (AID 504854); assay type: functional; conditions: Mycobacterium tuberculosis
[5] = NIH-3T3 fibroblast cytotoxicity, dose response, cytotoxicity control, cell-based, fluorescence, Alamar Blue, secondary assay (AID 2327); assay type: functional;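 further: NIH-3T3 mouse fibroblasts cultured with fluconazole at 8 µg/mL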
[6] = molecular target: Serine/threonine-protein phosphatase PP1-alpha catalytic subunit (Homo sapiens, UniProt P62136); experiment: PP1 phosphatase inhibitors, dose response, biochemical, fluorescence (AID 2403);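 further: phosphatase turnover of OMFP into fluorescent 3-O-methylfluorescein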
Serine/threonine-protein phosphatase PP1-alpha catalytic subunit, sequence (P62136 whole entry): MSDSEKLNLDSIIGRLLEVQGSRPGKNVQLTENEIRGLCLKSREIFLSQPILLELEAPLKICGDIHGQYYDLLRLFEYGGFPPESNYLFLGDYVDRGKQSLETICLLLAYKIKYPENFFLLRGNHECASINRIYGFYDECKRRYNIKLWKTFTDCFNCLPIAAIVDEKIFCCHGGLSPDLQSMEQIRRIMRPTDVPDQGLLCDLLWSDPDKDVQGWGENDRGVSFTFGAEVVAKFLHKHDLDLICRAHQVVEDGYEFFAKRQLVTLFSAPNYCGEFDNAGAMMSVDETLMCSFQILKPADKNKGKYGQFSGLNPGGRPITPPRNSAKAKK

[7] = C. albicans growth with fluconazole, confirmation, fluorescence, retest (AID 2467); assay type: functional, cell-based
[8] = inhibitors of intracellular T. cruzi replication, confirmation, NIH3T3 host cells, beta-gal luminescence (AID 2044); assay type: functional, cell-based;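 further: intracellular parasites grown in NIH/3T3 mouse fibroblasts as host cells; luminescent beta-galactosidase reporter signal from transgenic T. cruzi replicating inside host cells; inhibitors lower the luminescence signal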
[9] = molecular target: Serine/threonine-protein phosphatase (Homo sapiens, UniProt Q9BPW0); experiment: Counterscreen for inhibitors of PP1: fluorescence-based biochemical high throughput dose response assay to identify inhibitors of Protein Phosphatase 5 (PP5). [Related pubchem assays: 2034 (Summary (PP5 inhibitors)), 1987 (PP5 inhibitors in singlate), 2235 (PP1 inhibitors in singlate)]
Serine/threonine-protein phosphatase, sequence (Q9BPW0 whole entry): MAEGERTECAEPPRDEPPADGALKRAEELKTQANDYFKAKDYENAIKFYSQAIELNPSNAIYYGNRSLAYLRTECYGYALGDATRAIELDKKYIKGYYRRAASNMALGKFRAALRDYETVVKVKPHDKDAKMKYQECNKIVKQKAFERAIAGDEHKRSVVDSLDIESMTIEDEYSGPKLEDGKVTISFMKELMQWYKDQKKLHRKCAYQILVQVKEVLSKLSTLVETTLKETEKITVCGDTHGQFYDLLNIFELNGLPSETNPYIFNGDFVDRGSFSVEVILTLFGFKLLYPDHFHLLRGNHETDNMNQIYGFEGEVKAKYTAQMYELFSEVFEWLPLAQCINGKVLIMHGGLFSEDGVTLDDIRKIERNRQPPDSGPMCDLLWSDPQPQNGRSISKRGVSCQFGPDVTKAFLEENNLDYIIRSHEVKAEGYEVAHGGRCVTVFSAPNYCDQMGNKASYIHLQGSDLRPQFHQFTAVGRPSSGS

[10] = cytotoxicity toward NIH3T3 fibroblasts, dose response, counter-screen, cell-based, ATP luminescence, mouse fibroblasts (AID 2010); assay type: functional;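 further: cells exposed to compound for about 90 hours before reading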
[11] = system: HEK293; experiment: inhibitors of LMP1-driven NF-kB reporter, dose response, cell-based, HEK293, luciferase, cherry-pick (AID 588343); assay type: functional; conditions: Homo sapiens
[12] = molecular target: Latent membrane protein 1 (Human herpesvirus 4 (strain B95-8), UniProt P03230); experiment: TES1-eGFP NF-kB reporter inhibition versus Tet-On dsRED, dose response, selectivity assay for LMP1 NF-kB inhibitor project, imaging, HEK293T, dual-color eGFP/dsRED, cherry-picks (AID 588398); assay type: functional, cell-based
Latent membrane protein 1, sequence (P03230 whole entry): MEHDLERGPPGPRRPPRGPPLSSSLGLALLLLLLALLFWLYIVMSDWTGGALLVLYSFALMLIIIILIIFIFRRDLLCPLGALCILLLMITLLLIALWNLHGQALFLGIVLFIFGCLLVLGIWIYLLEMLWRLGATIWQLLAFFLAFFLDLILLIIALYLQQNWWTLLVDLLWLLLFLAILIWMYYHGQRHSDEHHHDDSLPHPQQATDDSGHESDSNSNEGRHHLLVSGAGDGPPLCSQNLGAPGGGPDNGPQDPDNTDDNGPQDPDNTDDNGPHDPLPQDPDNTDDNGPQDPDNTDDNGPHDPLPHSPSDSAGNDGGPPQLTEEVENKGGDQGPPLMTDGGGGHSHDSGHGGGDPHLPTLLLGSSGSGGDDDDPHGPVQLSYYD

[13] = system: INS1; experiment: beta cell apoptosis inhibitors, cytokine rescue, dose response, luminescence, retest (AID 449756); assay type: functional, cell-based; conditions: Rattus norvegicus;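 further: cell death triggered by IL-1 beta plus TNF-alpha plus IFN-gamma mixture; protective hits raise ATP signal compared with cytokine alone wells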
[14] = molecular target: Photoreceptor-specific nuclear receptor (Homo sapiens, UniProt Q9Y5X4); assay type: functional, cell-based;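 further: CHO-S cells with Gal4-NCOR and VP16-NR2E3 two-hybrid luciferase reporter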
Photoreceptor-specific nuclear receptor, sequence (Q9Y5X4 whole entry, the tested form may be a part): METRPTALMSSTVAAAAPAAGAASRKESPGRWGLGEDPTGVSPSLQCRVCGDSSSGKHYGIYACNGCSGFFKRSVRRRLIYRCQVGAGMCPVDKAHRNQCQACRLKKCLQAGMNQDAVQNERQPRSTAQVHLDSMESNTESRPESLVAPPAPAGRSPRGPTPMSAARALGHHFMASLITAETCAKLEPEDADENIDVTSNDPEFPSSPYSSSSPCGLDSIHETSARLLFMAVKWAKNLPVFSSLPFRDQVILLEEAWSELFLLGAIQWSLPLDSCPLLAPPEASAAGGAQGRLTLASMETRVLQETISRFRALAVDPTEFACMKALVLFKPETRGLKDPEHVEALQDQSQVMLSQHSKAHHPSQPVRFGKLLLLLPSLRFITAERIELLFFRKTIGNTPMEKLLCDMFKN

[15] = system: CHO-K1; experiment: (§1) Counterscreen for antagonists of the orexin 1 receptor (OX1R; HCRTR1): Homogeneous time resolved fluorescence (HTRF)-based cell-based dose response assay to identify antagonists of the parental CHO-K1 cell line. [Related pubchem assays (depositor defined):AID434989, AID435008, AID463079, AID485270, AID492963, AID492964, AID492965, AID493232, AID504699, AID504701]; assay type: functional; conditions: Cricetulus griseus
[16] = as §1, with “Fluorescence-based” for “Homogeneous time resolved fluorescence (HTRF)-based”, “cell-based high throughput” for “cell-based”, “CHO” for “CHO-K1”; assay type: functional
[17] = molecular target: T1, Orexin/Hypocretin receptor type 1 (Homo sapiens, UniProt O43613); experiment: Homogeneous Time Resolved Fluorescence (HTRF)-based cell-based high throughput dose response assay for antagonists of the orexin 1 receptor (OX1R; HCRTR1). [Related pubchem assays (depositor defined):AID434989, AID435008, AID463079, AID485270, AID492963, AID492964, AID492965, AID493232, AID504717, AID504718]; assay type: functional
T1 sequence (O43613 whole entry): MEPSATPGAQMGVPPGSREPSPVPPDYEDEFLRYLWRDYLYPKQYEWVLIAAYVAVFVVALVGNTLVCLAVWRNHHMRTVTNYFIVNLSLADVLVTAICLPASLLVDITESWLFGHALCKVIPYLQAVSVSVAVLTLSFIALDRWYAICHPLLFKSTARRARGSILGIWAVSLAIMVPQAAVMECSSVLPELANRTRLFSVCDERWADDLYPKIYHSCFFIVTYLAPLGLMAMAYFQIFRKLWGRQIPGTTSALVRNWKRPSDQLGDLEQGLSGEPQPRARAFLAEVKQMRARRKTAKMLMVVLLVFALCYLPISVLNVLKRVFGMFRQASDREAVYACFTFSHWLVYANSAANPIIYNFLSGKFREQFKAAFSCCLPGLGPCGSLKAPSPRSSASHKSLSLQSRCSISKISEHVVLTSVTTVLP

[18] = molecular target: T1, Orexin/Hypocretin receptor type 1; experiment: Fluorescence-based cell-based high throughput dose response assay for antagonists of the orexin 1 receptor (OX1R; HCRTR1). [Related pubchem assays (depositor defined):AID434989, AID435008, AID463079, AID485270, AID492963, AID492964, AID492965, AID493232, AID504717, AID504718]; assay type: functional
[19] = molecular target: T2, Orexin receptor type 2 (Homo sapiens, UniProt O43614); experiment: Counterscreen assay for antagonists of the orexin 1 receptor (OX1R; HCRTR1): Fluorescence-based cell-based dose response assay for antagonists of the orexin 2 receptor (OX2R; HCRTR2), run by assay provider.; assay type: functional
T2 sequence (O43614 whole entry): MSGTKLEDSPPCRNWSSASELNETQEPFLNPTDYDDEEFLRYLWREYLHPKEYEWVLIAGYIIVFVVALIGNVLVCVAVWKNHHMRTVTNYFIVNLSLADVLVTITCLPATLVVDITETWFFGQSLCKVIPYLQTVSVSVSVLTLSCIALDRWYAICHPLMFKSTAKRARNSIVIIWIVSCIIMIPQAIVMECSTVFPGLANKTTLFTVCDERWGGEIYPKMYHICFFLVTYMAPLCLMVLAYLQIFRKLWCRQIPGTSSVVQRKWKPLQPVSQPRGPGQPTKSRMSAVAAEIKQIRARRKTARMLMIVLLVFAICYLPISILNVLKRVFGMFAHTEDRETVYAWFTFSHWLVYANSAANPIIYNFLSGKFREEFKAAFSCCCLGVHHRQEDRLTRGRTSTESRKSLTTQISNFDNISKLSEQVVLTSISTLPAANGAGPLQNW

[20] = molecular target: T2, Orexin receptor type 2; experiment: Counterscreen assay for antagonists of the orexin 1 receptor (OX1R; HCRTR1): Homogeneous Time Resolved Fluorescence (HTRF)-based cell-based dose response assay for antagonists of the orexin 2 receptor (OX2R; HCRTR2), run by assay provider.; assay type: functional

DNA dC->dU-editing enzyme APOBEC-3G, sequence (Q9HC16 whole entry): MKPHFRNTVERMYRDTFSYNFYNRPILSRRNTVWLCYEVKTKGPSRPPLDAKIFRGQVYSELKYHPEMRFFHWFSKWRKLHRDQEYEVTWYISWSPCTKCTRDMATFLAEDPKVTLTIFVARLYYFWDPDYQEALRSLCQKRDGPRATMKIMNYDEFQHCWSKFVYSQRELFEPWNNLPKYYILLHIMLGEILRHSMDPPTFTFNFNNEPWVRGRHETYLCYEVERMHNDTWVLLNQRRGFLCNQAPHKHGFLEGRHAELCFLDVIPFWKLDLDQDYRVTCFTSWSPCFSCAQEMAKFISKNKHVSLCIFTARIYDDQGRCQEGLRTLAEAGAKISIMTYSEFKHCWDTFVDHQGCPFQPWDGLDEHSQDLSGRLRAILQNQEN

## CCOC(=O)CC(c1ccc(N)cc1)n1c(C)ccc1C (stereo not given)
[1]
  IC50: > 99 µM (inactive)
[2]
  IC50: > 99 µM (inactive)

## CC1CCN(C(=O)CSc2nc(O)c3ccccc3n2)CC1
[3]
  CC50: > 100 µM (active)
[4]
  CC50: > 100 µM (active)

## COc1cnc(-c2ccccn2)nc1Sc1ccccc1Cl
[5]
  EC50: > 150 µM (inconclusive)
[6]
  IC50: 7.8 µM (active)
[7]
  EC50: > 38 µM (not active)
[8]
  EC50: 2.36 µM (active)
[9]
  IC50: 59.1 µM (not active)
[10]
  EC50: > 60 µM (not active)
[11]
  AC50: 112 µM (active)
[12]
  AC50: 15.4 µM (active)
[13]
  AC50: 7.29 µM (active)
[14]
  IC50: 4.25 µM (active)

## Cc1cc(Cl)ccc1OCCCC(=O)NCCN1C(=O)S/C(=C\c2cccnc2)C1=O
[15]
  IC50: > 66.2 µM (inactive)
[16]
  IC50: 21.1 µM (inactive)
[17]
  IC50: 0.264 µM (active)
[18]
  IC50: 1.13 µM (active)
[19]
  IC50: 17.5 µM (inactive)
[20]
  IC50: > 50 µM (inactive)
